pIC50: −log10 of the molar value.
Legend:
Format in all cases: biochemical
[1] = molecular target: phosphorylated form of full length BTK (active BTK) (Homo sapiens (Human), UniProt Q06187); test: Mobility shift assay (MSA, Caliper LabChip), active BTK assay; conditions: Assay type B (MSA using active BTK)
Procedure: The active BTK assay consists of phosphorylated form of full length BTK. […] The enzyme inhibitor complexes is incubated, before the kinase activation reaction is initiated.
Mobility Shift Assay (MSA)
The active BTK assay consisted of phosphorylated form of full length BTK. […] The enzyme inhibitor complexes was incubated for 30 minutes at the room temperature and the kinase activation reaction was initiated by the addition of 1 μM Srctide peptide substrate and […].

[2] = molecular target: full-length activated BTK mutant C481S (Homo sapiens (Human), UniProt Q06187, C481S); test: AlphaScreen assay, BTK mutant C481S; conditions: for inhibition at 10 µM: read-out: BTK-C481S % @ 10 uM, @ 10 uM
[3] = molecular target: full-length activated BTK (wildtype) (Homo sapiens (Human), UniProt Q06187); test: AlphaScreen assay, wild-type BTK; conditions: for inhibition at 10 µM: read-out: BTK % @ 10 uM, @ 10 uM
full-length activated BTK (wildtype), sequence (Q06187 whole entry): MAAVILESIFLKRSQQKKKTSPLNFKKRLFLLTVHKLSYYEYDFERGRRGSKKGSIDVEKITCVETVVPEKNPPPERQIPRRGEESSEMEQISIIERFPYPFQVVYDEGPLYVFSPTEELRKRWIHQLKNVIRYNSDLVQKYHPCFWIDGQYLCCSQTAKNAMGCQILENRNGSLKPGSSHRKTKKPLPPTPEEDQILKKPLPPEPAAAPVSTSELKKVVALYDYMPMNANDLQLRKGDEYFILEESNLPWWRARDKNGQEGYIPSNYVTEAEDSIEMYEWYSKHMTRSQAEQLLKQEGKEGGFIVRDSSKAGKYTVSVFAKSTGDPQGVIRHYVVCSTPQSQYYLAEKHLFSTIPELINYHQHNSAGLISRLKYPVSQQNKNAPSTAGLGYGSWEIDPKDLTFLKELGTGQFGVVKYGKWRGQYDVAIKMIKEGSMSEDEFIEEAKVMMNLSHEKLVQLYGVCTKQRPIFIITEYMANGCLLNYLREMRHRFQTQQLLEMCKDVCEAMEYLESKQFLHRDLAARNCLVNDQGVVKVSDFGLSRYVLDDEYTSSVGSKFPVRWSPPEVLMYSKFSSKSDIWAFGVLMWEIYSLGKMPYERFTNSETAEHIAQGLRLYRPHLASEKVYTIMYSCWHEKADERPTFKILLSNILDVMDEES

phosphorylated form of full length BTK (active BTK), sequence (Q06187 whole entry): as above
full-length activated BTK mutant C481S, sequence (Q06187 whole entry C481S): as the sequence (Q06187 whole entry) above, with C481S counted along it

Row | SMILES | pIC50 [1] | inhibition at 10 µM [2] | inhibition at 10 µM [3] | pIC50 [2] | pIC50 [3]
1 | O=C(c1ccc(Oc2ccccc2)cc1Cl)c1c[nH]c2ncnc(N[C@H]3CC[C@@H](O)[C@@H](O)C3)c12 (racemic) [Compound I-179, rac-(2-chloro-4-phenoxyphenyl)(4-(((1S,3S,4R)-3,4-dihydroxycyclohexyl)amino)-7H-pyrrolo[2,3-d]pyrimidin-5-yl)methanone] | 8.74 |  |  |  | 
2 | O=C(c1ccc(Oc2ccccc2)cc1Cl)c1c[nH]c2ncnc(N[C@H]3CC[C@H](O)[C@H](O)C3)c12 (racemic) [Compound I-180, rac-(2-chloro-4-phenoxyphenyl)(4-(((1S,3R,4S)-3,4-dihydroxycyclohexyl)amino)-7H-pyrrolo[2,3-d]pyrimidin-5-yl)methanone] | 8.74 |  |  |  | 
3 | CC(O)CCCCC(=O)N[C@H]1CC[C@@H](Nc2ncnc3[nH]cc(C(=O)c4ccc(Oc5ccccc5)cc4Cl)c23)CC1 (mixture of isomers) [Compound I-212, rac-N-(cis-4-((5-(2-chloro-4-phenoxybenzoyl)-7H-pyrrolo[2,3-d]pyrimidin-4-yl)amino)cyclohexyl)-6-hydroxyheptanamide] | 8.54 |  |  |  | 
4 | CC(O)CCCCCC(=O)N[C@H]1CC[C@@H](Nc2ncnc3[nH]cc(C(=O)c4ccc(Oc5ccccc5)cc4Cl)c23)CC1 (mixture of isomers) [Compound I-214, rac-N-(cis-4-((5-(2-chloro-4-phenoxybenzoyl)-7H-pyrrolo[2,3-d]pyrimidin-4-yl)amino)cyclohexyl)-7-hydroxyoctanamide] | 8.13 |  |  |  | 
5 | C[C@H](O)C(=O)N(C)[C@H]1CC[C@@H](Nc2ncnc3[nH]cc(C(=O)c4ccccc4Cl)c23)CC1 [Compound I-106, (S)—N-(cis-4-((5-(2-chlorobenzoyl)-7H-pyrrolo[2,3-d]pyrimidin-4-yl)amino)cyclohexyl)-2-hydroxy-N-methylpropanamide] | 8.34 |  |  |  | 
6 | COC[C@]1(O)CC[C@H](Nc2ncnc3[nH]cc(C(=O)c4ccccc4Cl)c23)CC1 [Compound I-107, (2-chlorophenyl)(4-((trans-4-hydroxy-4-(methoxymethyl)cyclohexyl)amino)-7H-pyrrolo[2,3-d]pyrimidin-5-yl)methanone] | 7.92 |  |  |  | 
7 | COCCNC(=O)c1cccc(C(=O)c2c[nH]c3ncnc(N[C@@H]4CC[C@@H](CO)OC4)c23)c1 [Compound I-637, 3-(4-(((3R,6S)-6-(hydroxymethyl)tetrahydro-2H-pyran-3-yl)amino)-7H-pyrrolo[2,3-d]pyrimidine-5-carbonyl)-N-(2-methoxyethyl)benzamide] |  | 55% | 76% |  | 
8 | Cn1cc(NC(=O)c2cccc(C(=O)c3c[nH]c4ncnc(N[C@@H]5CC[C@@H](CO)OC5)c34)c2)cn1 [Compound I-638, 3-(4-(((3R,6S)-6-(hydroxymethyl)tetrahydro-2H-pyran-3-yl)amino)-7H-pyrrolo[2,3-d]pyrimidine-5-carbonyl)-N-(1-methyl-1H-pyrazol-4-yl)benzamide] |  | 54% | 63% |  | 
9 | O=C(Cc1ccccc1)Nc1ccc(C(=O)c2c[nH]c3ncnc(N[C@@H]4CC[C@@H](CO)OC4)c23)c(Cl)c1 [Compound I-639, N-(3-chloro-4-(4-(((3R,6S)-6-(hydroxymethyl)tetrahydro-2H-pyran-3-yl)amino)-7H-pyrrolo[2,3-d]pyrimidine-5-carbonyl)phenyl)-2-phenylacetamide] |  |  |  | 7.59 | 7.85
10 | O=C(c1ccc(NC(=O)C2(c3ccccc3)CC2)cc1Cl)c1c[nH]c2ncnc(N[C@@H]3CC[C@@H](CO)OC3)c12 [Compound I-640, N-(3-chloro-4-(4-(((3R,6S)-6-(hydroxymethyl)tetrahydro-2H-pyran-3-yl)amino)-7H-pyrrolo[2,3-d]pyrimidine-5-carbonyl)phenyl)-1-phenylcyclopropane-1-carboxamide] |  |  |  | 6.69 | 7.16
11 | O=C(COCc1ccccc1)Nc1ccc(C(=O)c2c[nH]c3ncnc(N[C@@H]4CC[C@@H](CO)OC4)c23)c(Cl)c1 [Compound I-641, 2-(benzyloxy)-N-(3-chloro-4-(4-(((3R,6S)-6-(hydroxymethyl)tetrahydro-2H-pyran-3-yl)amino)-7H-pyrrolo[2,3-d]pyrimidine-5-carbonyl)phenyl) acetamide] |  |  |  | 7.49 | 8.08
12 | O=C(Nc1cccc(C(=O)c2c[nH]c3ncnc(N[C@@H]4CC[C@@H](CO)OC4)c23)c1)c1ccccc1 [Compound I-642, N-(3-(4-(((3R,6S)-6-(hydroxymethyl)tetrahydro-2H-pyran-3-yl)amino)-7H-pyrrolo[2,3-d]pyrimidine-5-carbonyl)phenyl)benzamide] |  |  |  | 6.69 | 6.60
13 | O=C(Nc1cccc(C(=O)c2c[nH]c3ncnc(N[C@@H]4CC[C@@H](CO)OC4)c23)c1)c1ccccn1 [Compound I-643, N-(3-(4-(((3R,6S)-6-(hydroxymethyl)tetrahydro-2H-pyran-3-yl)amino)-7H-pyrrolo[2,3-d]pyrimidine-5-carbonyl)phenyl)picolinamide] |  |  |  | 6.82 | 6.57
14 | O=C(c1cccc(NC(=O)C2CCOCC2)c1)c1c[nH]c2ncnc(N[C@@H]3CC[C@@H](CO)OC3)c12 [Compound I-644, N-(3-(4-(((3R,6S)-6-(hydroxymethyl)tetrahydro-2H-pyran-3-yl)amino)-7H-pyrrolo[2,3-d]pyrimidine-5-carbonyl)phenyl)tetrahydro-2H-pyran-4-carboxamide] |  | 44% | 58% |  | 
15 | COCC(=O)Nc1cccc(C(=O)c2c[nH]c3ncnc(N[C@@H]4CC[C@@H](CO)OC4)c23)c1 [Compound I-645, N-(3-(4-(((3R,6S)-6-(hydroxymethyl)tetrahydro-2H-pyran-3-yl)amino)-7H-pyrrolo[2,3-d]pyrimidine-5-carbonyl)phenyl)-2-methoxyacetamide] |  | 81% |  |  | 6.13
16 | O=C(c1ccc(N2CCCCC2)cc1Cl)c1c[nH]c2ncnc(N[C@@H]3CC[C@@H](CO)OC3)c12 [Compound I-646, (2-chloro-4-(piperidin-1-yl)phenyl)(4-(((3R,6S)-6-(hydroxymethyl)tetrahydro-2H-pyran-3-yl)amino)-7H-pyrrolo[2,3-d]pyrimidin-5-yl)methanone] |  |  |  | 6.11 | 6.42
17 | O=C(c1ccc(N2CC3(COC3)C2)cc1Cl)c1c[nH]c2ncnc(N[C@@H]3CC[C@@H](CO)OC3)c12 [Compound I-647, (2-chloro-4-(2-oxa-6-azaspiro[3.3]heptan-6-yl)phenyl)(4-(((3R,6S)-6-(hydroxymethyl)tetrahydro-2H-pyran-3-yl)amino)-7H-pyrrolo[2,3-d]pyrimidin-5-yl)methanone] |  |  |  | 6.97 | 5.84
18 | COCCOc1ccc(Cl)c(C(=O)c2c[nH]c3ncnc(N[C@@H]4CC[C@@H](CO)OC4)c23)c1 [Compound I-648, (2-chloro-5-(2-methoxyethoxy)phenyl)(4-(((3R,6S)-6-(hydroxymethyl)tetrahydro-2H-pyran-3-yl)amino)-7H-pyrrolo[2,3-d]pyrimidin-5-yl)methanone] |  |  |  | 6.09 | 6.14
19 | COCCOc1cccc(C(=O)c2c[nH]c3ncnc(N[C@@H]4CC[C@@H](CO)OC4)c23)c1 [Compound I-649, (4-(((3R,6S)-6-(hydroxymethyl)tetrahydro-2H-pyran-3-yl)amino)-7H-pyrrolo[2,3-d]pyrimidin-5-yl)(3-(2-methoxyethoxy)phenyl)methanone] |  | 82% |  |  | 6.02
20 | O=C(c1ccc(Nc2ccccc2)cc1Cl)c1c[nH]c2ncnc(N[C@@H]3CC[C@@H](CO)OC3)c12 [Compound I-650, (2-Chloro-4-(phenylamino)phenyl)(4-(((3R,6S)-6-(hydroxymethyl)tetrahydro-2H-pyran-3-yl)amino)-7H-pyrrolo[2,3-d]pyrimidin-5-yl)methanone] |  |  |  | 6.49 | 6.69
21 | CNC(=O)c1ccc(Oc2ccc(C(=O)c3c[nH]c4ncnc(N[C@@H]5CC[C@@H](CO)OC5)c34)c(Cl)c2)cn1 [Compound I-651, 5-(3-chloro-4-(4-(((3R,6S)-6-(hydroxymethyl)tetrahydro-2H-pyran-3-yl)amino)-7H-pyrrolo[2,3-d]pyrimidine-5-carbonyl)phenoxy)-N-methyl picolinamide] |  |  |  | 6.64 | 6.48
22 | COc1ccccc1C(=O)NCc1ccc(C(=O)c2c[nH]c3ncnc(N[C@@H]4CC[C@@H](CO)OC4)c23)cc1 [Compound I-652, N-(4-(4-(((3R,6S)-6-(hydroxymethyl)tetrahydro-2H-pyran-3-yl)amino)-7H-pyrrolo[2,3-d]pyrimidine-5-carbonyl)benzyl)-2-methoxybenzamide] |  |  |  | 6.30 | 6.75
23 | CC(=O)N1C[C@H](Nc2ncnc3[nH]cc(C(=O)c4ccc(Oc5ccccc5)cc4Cl)c23)C[C@H]1CO [Compound I-655, 1-((2S,4R)-4-((5-(2-chloro-4-phenoxybenzoyl)-7H-pyrrolo[2,3-d]pyrimidin-4-yl)amino)-2-(hydroxymethyl)pyrrolidin-1-yl)ethan-1-one] |  |  |  | 7.28 | 7.35
24 | CS(=O)(=O)N1C[C@H](Nc2ncnc3[nH]cc(C(=O)c4ccc(Oc5ccccc5)cc4Cl)c23)C[C@H]1CO [Compound I-656, (2-chloro-4-phenoxyphenyl)(4-(((3R,5S)-5-(hydroxymethyl)-1-(methylsulfonyl)pyrrolidin-3-yl)amino)-7H-pyrrolo[2,3-d]pyrimidin-5-yl)methanone] |  |  |  | 6.60 | 6.91
25 | O=C(c1ccc(Oc2ccccc2)cc1Cl)c1c[nH]c2ncnc(NC[C@@H]3C[C@@H](CO)N(Cc4ccccc4)C3)c12 [Compound I-657, (4-((((3S,5S)-1-benzyl-5-(hydroxymethyl)pyrrolidin-3-yl)methyl)amino)-7H-pyrrolo[2,3-d]pyrimidin-5-yl)(2-chloro-4-phenoxyphenyl)methanone] |  |  |  | 6.08 | 6.63
